Source: US20250250265A1, “BENZOTHIAZOLE-PHENYLSULFONYL-PIPERIDINE ANALOGS AS ACTIVATORS OF NACYLPHOSPHATIDYLETHANOLAMINE HYDROLYZING PHOSPHOLIPASE D” (priority 2022, published 2025)
Values joined by “and” are separate entries in the source; they are usually repeats but may differ in a detail not shown here. Equal entries are not always repeated. Where two headings read alike, the source gives them in different places. Marks after values point to notes of the source that are not given here.

What was measured:
[1] = target: T1, recombinant mouse NAPE-PLD (Mus musculus, UniProt Q8BH82); test: In vitro fluorescence NAPE-PLD activity assay (HTS/CRC) with recombinant mouse NAPE-PLD and PED-A1; type: biochemical; conditions: for AC50 / Max % bA (%) / AC50 (nM): Table 1; for AC50 / AC50 (nM): concentration for 50% maximum activation from basal activity (no activator); for Max % bA (%): maximum induced activity compared to basal (100%) activity; for Emax (95% Cl): Table 4, maximal efficacy as fold increase in NAPE-PLD activity versus vehicle only
T1 construct: hexahistidine (His6) (C); made in house; host or cells: E. coli
T1 sequence (Q8BH82 1-396): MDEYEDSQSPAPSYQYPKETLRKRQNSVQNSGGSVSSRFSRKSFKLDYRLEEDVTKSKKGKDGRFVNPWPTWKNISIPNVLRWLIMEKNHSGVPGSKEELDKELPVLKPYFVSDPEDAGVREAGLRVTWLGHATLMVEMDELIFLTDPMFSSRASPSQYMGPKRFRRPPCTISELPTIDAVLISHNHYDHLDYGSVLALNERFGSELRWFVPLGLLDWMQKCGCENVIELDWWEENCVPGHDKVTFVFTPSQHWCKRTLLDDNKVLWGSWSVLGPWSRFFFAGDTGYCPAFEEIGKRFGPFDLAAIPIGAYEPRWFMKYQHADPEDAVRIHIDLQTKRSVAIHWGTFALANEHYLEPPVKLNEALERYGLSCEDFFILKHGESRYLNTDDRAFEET
Procedure: Using the fluorogenic NAPE substrate, PED-A1, and recombinant mouse NAPE-PLD (rNAPE-PLD), an in vitro high-throughput (HTS) assay was conducted to screen ˜40,000 compounds for their ability to modulate NAPE-PLD activity. The HTS assay enabled the detection of both NAPE-PLD activators and inhibitors. […] Initial structure-activity response studies with the top hits identified benzothiazole phenylsulfonyl-piperidine carboxamide analogs (BT-PSP analogs) as lead compounds for NAPE-PLD activators (Table 1). The lead BT-PSP analog identified, VU534, induces 50% of its activation effect on NAPE-PLD at 270 nM (AC50 270 nM), and induces a maximal effect of 195% of basal NAPE-PLD activity (Table 1).
In vitro fluorescence NAPE-PLD activity assays using recombinant NAPE-PLD and either PED-A1 or flame-NAPE as fluorogenic substrate were performed as previously described except with small modifications as noted below. See Aggarwal et al., J. Biol. Chem. 295(21): 7289-7300 (2020); Zarrow et al., J. Lipid Res. 63(1): 100156 (2022).
For the HTS assays, test compounds were incubated with recombinant enzyme for 1 h prior to adding PED-A1 (final 0.4 μM) mixed with N-palmitoyl-dioleoyl-PE (final 3.6 μM) to adjust for the high sensitivity of the Panoptic instrument (WaveFront Biosciences). Assays used black-wall, clear-bottom, non-sterile, and non-treated 384-well plates (Greiner Bio-One 781906). The assay was read in kinetic fluorescence mode on the Panoptic instrument for 4 min and the slope of the signal from 30-100 s was used for analysis. A total of 39,328 compounds from the Vanderbilt Discovery Collection were tested, each at 10 μM. The tested compounds were chosen to represent a structurally diverse selection from the full library. Each 384-well plate included 320 test compound wells and 64 control wells. Unlike previous pilot screening assays, bithionol (10 μM final) was used in place of lithocholic acid (100 μM final) as the inhibitor control. Before performing high-throughput screening, a checkerboard assay was performed to validate the assay parameters. This yielded a Z′ score of 0.676. Z′ scores were also calculated for each plate during screening, and plates with scores <0.5 were re-run. The average Z′ across all screening plates was 0.52, and the total hit rate was 3.6%. B-scores were calculated from the initial slopes across each plate using WaveGuide software (WaveFront Biosiences). Modulator hits were defined as compounds with absolute B-scores of 3 or higher. The number of compounds in various B-score ranges were as follows: […], 12 compounds; −10 to −5, 221 compounds; −5 to −3, 770 compounds; −3 to 3, 37924 compounds; 3 to 4, 314 compounds; 4 to 6, 70 compounds; 6 to 10, 15 compounds. Activator hits with B-scores of >3 were selected for the replication assay and a selection of analogs of the activators.
Concentration response curve (CRC) experiments used the same assay conditions as the HTS assay, except that graded concentrations of each test compound were used, with total amount of vehicle (DMSO) kept constant. CRC experiments with purified recombinant mouse NAPE-PLD were performed on two separate days, with values from each day normalized to vehicle only controls on same plate, and then all normalized values from both days averaged together. CRC experiments with human NAPE-PLD represent value from only a single day, due to limited amounts of this recombinant enzyme.

[2] = target: T2, soluble epoxide hydrolase (sEH) (Homo sapiens, UniProt P34913); test: sEH activity assay (Cayman Chemicals); type: biochemical; conditions: 33 μM compound, compared to vehicle (0%)
T2 construct: purchased Cayman Chemicals
T2 sequence (P34913 1-555): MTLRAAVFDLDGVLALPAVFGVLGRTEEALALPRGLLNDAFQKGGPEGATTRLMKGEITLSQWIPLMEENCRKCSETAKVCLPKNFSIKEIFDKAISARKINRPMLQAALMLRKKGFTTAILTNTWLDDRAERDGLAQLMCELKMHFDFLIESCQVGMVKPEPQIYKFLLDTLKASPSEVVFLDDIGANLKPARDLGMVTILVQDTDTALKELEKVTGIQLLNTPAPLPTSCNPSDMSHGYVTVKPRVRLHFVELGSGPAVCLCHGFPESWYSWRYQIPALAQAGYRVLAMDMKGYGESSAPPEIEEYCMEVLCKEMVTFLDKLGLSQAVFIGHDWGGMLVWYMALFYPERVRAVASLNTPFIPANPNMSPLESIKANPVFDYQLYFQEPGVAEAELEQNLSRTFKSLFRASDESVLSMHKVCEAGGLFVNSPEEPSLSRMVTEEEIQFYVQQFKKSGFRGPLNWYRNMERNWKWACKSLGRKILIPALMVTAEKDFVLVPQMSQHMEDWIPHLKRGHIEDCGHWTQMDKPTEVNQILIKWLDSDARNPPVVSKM
Procedure: (§1) Concentration response curves were plotted for VU534 for the enzymes fatty acid amide hydrolase (FAAH) and soluble epoxide hydrolase (sEH).
(§2) The fluorescence interference assay was performed using the same method as the HTS assay, but with BODIPY-FL C5 (Thermo Fisher Scientific) used in place of PED-A1. sEH and FAAH activity assays were performed according to the manufacturer's specifications (Cayman Chemicals).

[3] = system: RAW264.7 mouse macrophages; test: Cytotoxicity (MTT) in RAW264.7 macrophages; type: cell-based
Procedure: (§3) Cytotoxicity was measured using MTT as previously described except that the studies used 96-well plates with 100 μL of 0.3 mg/mL MTT solution was added after 24 h of treatment and then replaced after 3 h with 0.1 M HCl in isopropanol. See Aggarwal et al., J. Biol. Chem. 295(21): 7289-7300 (2020). Viability was expressed as percent absorbance at 560 nm relative to vehicle controls.

[4] = target: T3, Fatty Acid Amide Hydrolase (FAAH) (Homo sapiens, UniProt O00519); test: FAAH activity assay (Cayman Chemicals); type: biochemical
T3 construct: purchased Cayman Chemicals
T3 sequence (O00519 1-579): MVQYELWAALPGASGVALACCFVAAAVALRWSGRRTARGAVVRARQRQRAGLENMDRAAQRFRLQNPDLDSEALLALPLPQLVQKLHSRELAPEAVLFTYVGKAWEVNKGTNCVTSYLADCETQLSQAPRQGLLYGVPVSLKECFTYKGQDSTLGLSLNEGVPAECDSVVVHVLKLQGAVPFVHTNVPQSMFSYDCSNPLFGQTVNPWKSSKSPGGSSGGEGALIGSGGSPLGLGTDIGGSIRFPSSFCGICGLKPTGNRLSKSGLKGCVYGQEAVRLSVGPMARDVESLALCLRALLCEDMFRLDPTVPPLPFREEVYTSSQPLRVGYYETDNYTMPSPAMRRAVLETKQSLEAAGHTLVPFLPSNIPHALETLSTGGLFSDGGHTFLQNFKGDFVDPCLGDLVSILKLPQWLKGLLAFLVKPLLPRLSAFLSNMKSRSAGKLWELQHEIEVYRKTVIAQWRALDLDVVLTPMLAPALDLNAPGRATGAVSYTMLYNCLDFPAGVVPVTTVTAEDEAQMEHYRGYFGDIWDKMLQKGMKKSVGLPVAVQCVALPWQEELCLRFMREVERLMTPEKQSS
Procedure: as §1, §2

[5] = target: T4, NAPE-PLD activity of HepG2 cells (Homo sapiens, UniProt Q6IQ20); test: Cell-based NAPE-PLD activity in HepG2 cells (flame-NAPE); conditions: Table 3; 10 μM
T4 construct: endogenous in cells; host or cells: HepG2
Procedure: In vitro models of the hepatic steatosis of non-alcoholic fatty liver disease (NAFLD) are well-established, with the primary method being incubation of primary human hepatocytes or hepatocyte cell lines such as HepG2, HuH7, HepaRG, with oleic acid and palmitic acid for 24 to 48 h, then measuring the resulting steatosis, lipid peroxidation, apoptosis, and inflammatory gene expression. Using flame-NAPE to measure NAPE-PLD activity in the human hepatoma HepG2 cell line, the experimental data confirmed that VU534 activated NAPE-PLD in human cells (AC50 940 nM; max % bA 155%). Bithionol (10 μM) reduced HepG2 flame-NAPE hydrolysis by >67%.
NAPE-PLD activity was measured in cells as previously described, except that FluoroBrite DMEM (Gibco A1896701) was used as media. See Zarrow et al., J. Lipid Res. 63(1): 100156 (2022). For RAW264.7 assays, PED-A1 (3.6 μM final) was used as the substrate with 10 μM orlistat added to inhibit PLA1 activity, while for HepG2 cells, flame-NAPE was used (with no orlistat added).

[6] = system: HepG2 human hepatocytoma cells; test: Cytotoxicity (MTT) in HepG2 cells; type: cell-based; conditions: Table 3; 33 μM
Procedure: as §3

[7] = Table 2, maximal induced activity for recombinant NAPE-PLD compared to basal (100%), read-out: Emax (%)
[8] = Table 2, rNAPE-PLD activity assay
[9] = Table 3, read-out: In vitro EC50
[10] = Table 3, read-out: In vitro Emax (100% activity is baseline activity of vehicle only)
[11] = Table 2, rNAPE-PLD activity assay, read-out: EC50

T4 sequence (Q6IQ20 whole entry): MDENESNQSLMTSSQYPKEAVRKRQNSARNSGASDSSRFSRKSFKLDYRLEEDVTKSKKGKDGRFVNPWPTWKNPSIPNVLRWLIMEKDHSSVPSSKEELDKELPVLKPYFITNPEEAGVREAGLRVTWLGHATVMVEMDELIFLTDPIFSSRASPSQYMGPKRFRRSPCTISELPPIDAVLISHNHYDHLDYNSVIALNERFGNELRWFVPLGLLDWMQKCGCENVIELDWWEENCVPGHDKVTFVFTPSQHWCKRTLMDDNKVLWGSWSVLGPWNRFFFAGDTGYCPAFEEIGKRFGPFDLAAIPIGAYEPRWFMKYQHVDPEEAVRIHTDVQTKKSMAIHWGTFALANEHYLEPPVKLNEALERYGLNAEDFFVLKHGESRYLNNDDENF

Row | Structure (SMILES) | Max % bA (%) [1] [%] | Emax [1, 7] [%] | EC50 [1, 9] [µM] | Emax [1, 10] [%] | Emax (95% Cl) [1] | further results
1 | O=C(Nc1nc2ccccc2s1)C1CCN(S(=O)(=O)c2ccc(F)cc2)CC1 [VU488] |  | 135 | 0.39 | 136 | 1.7 (1.6-1.8) fold | EC50 [1, 11]: 0.39 µM
2 | Cc1cccc2sc(NC(=O)C3CCN(S(=O)(=O)c4ccc(Cl)cc4)CC3)nc12 [VU542] | <120 | < 120 | 1.1 | 183 | 1.9 (1.9-2.0) fold | AC50 (nM) [1]: Not active; EC50 (μM) [1, 8]: Inactive
3 | Cc1cccc2sc(NC(=O)C3CCN(S(=O)(=O)c4ccc(F)cc4)CC3)nc12 [VU231] | <120 | < 120 | 1.1 | 168 | 2.0^d fold | AC50 (nM) [1]: Not active; EC50 (μM) [1, 8]: Inactive
4 | Cc1cc(F)ccc1S(=O)(=O)N1CCC(C(=O)Nc2nc3c(C)cccc3s2)CC1 [MRJ-058A] |  | 150 |  |  |  | inhibition at 33 µM [2]: 85%; EC50 [1, 11]: 2.9 µM; 33 μM Mϕ % Viability ([3]; Table 2, Mϕ, 33 μM compound): 55%; inhibition at 33 µM ([4]; 33 μM compound, compared to vehicle (0%)): 20%
5 | Cc1cc(F)ccc1S(=O)(=O)N1CCC(C(=O)Nc2nc3c(C)cccc3s2)CC1 [VU212] |  |  | ~2.9 | ~151 | 1.6 (1.5-1.6) fold | % viability RAW 264.7 (33 μM) ([3]; Table 3, 33 μM): 32% and 56%; In-cell NAPE-PLD activity in HepG2 (10 μM) with PED-A1 or flame-NAPE as substrate [5]: 197% and 268%; % HepG2 viability (33 μM) [6]: 66% and 69%; Remaining FAAH Activity (33 μM) ([4]; Table 3, 33 μM): 61% and 79%
6 | Cc1cc(F)ccc1S(=O)(=O)N1CCC(C(=O)Nc2nc3ccccc3s2)CC1 [VU205] |  |  |  |  | <1.2 fold | 

The next lines start with results.

Row | Max % bA (%) [1] [%] | Emax [1, 7] [%] | EC50 [1, 9] [µM] | Emax [1, 10] [%] | Emax (95% Cl) [1] | Structure (SMILES) | further results
7 | 170 | < 120 | ~0.2 | ~119 | 2.1 (2.0-2.2) fold | COc1ccc(S(=O)(=O)N2CCC(C(=O)Nc3nc4c(C)cccc4s3)CC2)cc1 [VU605] | AC50 [1]: 1.04 µM; EC50 (μM) [1, 8]: Inactive
8 |  |  | 2.6 | 162 | 2.1 (2.0-2.2) fold | COc1ccc2nc(NC(=O)C3CCN(S(=O)(=O)c4ccc(F)cc4)CC3)sc2c1 [VU484] | 
9 | 170 | 170 | 2.4 | 167 | 1.7 (1.6-1.8) fold | Cc1ccc2nc(NC(=O)C3CCN(S(=O)(=O)c4ccc(Cl)cc4)CC3)sc2c1 [VU539] | AC50 [1]: 2.38 µM; EC50 [1, 11]: 2.38 µM
10 |  |  |  | ~349 |  | Cc1ccc(S(=O)(=O)N2CCC(C(=O)Nc3nc4ccc(Cl)cc4s3)CC2)cc1 [VU572] | 
11 |  |  | ~1 | 171 | 1.8 (1.8-1.9) fold | COc1ccc(S(=O)(=O)N2CCC(C(=O)Nc3nc4ccc(C)cc4s3)CC2)cc1 [VU601] | 
12 |  |  | 29 | 232 | 2.0 (1.8-4.0) fold | COc1cccc2sc(NC(=O)C3CCN(S(=O)(=O)c4ccc(F)cc4)CC3)nc12 [VU485] | 
13 |  |  | 3.3 | 153 |  | O=C(Nc1nc2ccccc2s1)C1CCN(S(=O)(=O)c2ccc(Cl)cc2)CC1 [VU541] | 
